Reference: patent publication US20250082766A1, “TREATMENT OF BRAIN TUMORS BY TARGETING THE CHOLESTEROL PATHWAY IN ASTROCYES” (Ramot at Tel-Aviv University Ltd., priority 2022, published 2025)
“Also recorded” adds a separate entry of the source.

Key:
[1] = molecular target: cholesterol transporter ABCA1 (Homo sapiens, UniProt O95477); conditions: cited from earlier work
GL261 glioma (GBM) = test: Primary GBM model: GL261 intracranially implanted mice treated with Probucol; type: in vivo, mouse; conditions: for tumor growth (IVIS): Probucol 30 mg/kg daily from day 10 (quarter of HED) vs vehicle, FIG. 16B
Procedure: (FIG. 16A) Illustration of the experimental design for primary and recurrent GBM models. (FIGS. 16B-D) WT mice were intracranially (IC) implanted with GL261 cells. Tumor-bearing mice were treated daily, starting at day 10, with Probucol (30 mg/kg) or vehicle. (FIG. 16B) Tumor growth curve as determined by IVIS, (FIG. 16C) mice weight loss, and (FIG. 16D) Kaplan-Meier curves assess overall survival. p-value by Two-way ANOVA. Data represent Mean±SEM, 8 mice/group. (FIG. 16E) Illustration of the predicted effects of probucol or glyburide in the different models/disease stages.
For intracranial mouse glioma, mice were anesthetized, positioned in a Stereotaxic Alignment System, and injected with 1.5×10^4 GL261 or CT-2A cells in 2 μl of DMEM. Injections were made to the right frontal lobe, approximately 2.5 mm lateral and 0.1 mm caudal from bregma at a depth of 3 mm. In-vivo bioluminescence imaging, following XenoLight D-luciferin Potassium Salt administration (150 mg/kg) i.p. administration, was determined using IVIS Spectrum system (PerkinElmer). Ganciclovir (GCV, Cymevene, Roche #SAP-10051872; 25 mg/kg), Diphtheria-toxin (DT, Sigma-Aldrich, #D0564; 1100 ng/mice), or vehicle control (PBS) were administered daily following tumor establishment (day 10), as previously described (Mayo, L., et al. Nat Med (2014) 20: 1147-1156). CD8^+ T cell depletion was performed using an anti-CD8 monoclonal antibody ([…], Bioxcell) or an isotype control monoclonal antibody (2A3, Bioxcell), as previously described (Takenaka, M. C. et al. Control of tumor-associated macrophages and T cells in glioblastoma via AHR and CD39. Nat Neurosci 22, 729-740 (2019)). GBM-bearing mice were intraperitoneally injected (0.1 mg/mouse) with an anti-CD8 or an isotype control mAbs, 1 day before, and 7 days after, GCV administration. CD8 T-cell depletion was validated by FACS analysis using a Sony SH800 FACS instrument (Sony Biotechnology). Data analysis was performed using FlowJo v10 (TreeStar, USA). The following reagents were used for analysis: anti-CD45 (1:100; 30-F11, Biolegend, #103106), anti-CD3[…] (1:50; 145-2C11, Biolegend #100335), and anti-CD8a (1:100; 53-6.7, Biolegend, #100765).
To investigate this hypothesis, C57Bl/6 mice are implanted with GFP^+ luciferase-expressing glioma cells (GL261 or CT-2A), using two subtype models—primary or recurrent GBM/brain tumor resection (as illustrated in FIG. 16A), and are treated daily with probucol, glyburide, or vehicle control, with or without a potent statin (e.g., simvastatin as shown in FIG. 15A). The dosage of the different drugs is optimized based on FDA guidelines for conversions from human-accepted dosages (Table 5 below).
In the primary GBM model (pGBM)—10 days after tumor implantation, the mice are treated with cholesterol-lowering drugs (FIG. 16A). In the recurrent GBM model (rGBM), 12-14 days after inoculation of the mice with the tumor cells, the visible tumor(s) are surgically removed, based on GFP expression, under a stereoscope. The mice are then allowed to recover for a week and then are treated with cholesterol-lowering drugs (FIG. 16A). Of note, tumor formation or recurrence is monitored by bioluminescence (BLI) signals from the tumor cells on in-vivo imaging system (IVIS) spectrum and quantified with Living Image software. Mice are monitored for tumor growth, peritumoral brain edema formation, and mouse survival until the experimental endpoint (extreme lethargy or body weight reduction of greater than 20%), or are euthanized seven days after treatment with the cholesterol-lowering drugs to assess tumor burden, angiogenesis, BBB stability, and immunomodulatory activity in-situ. Tumor volume is evaluated in-vivo by determining tumor BLI, and by histopathology analysis postmortem. Peritumoral brain edema is evaluated in-vivo using IVISense™ Edema (Superhance™ 680) fluorescent probe. […]

GL261-Luc2 glioma (GBM) = test: GL261-Luc2 implanted mice treated with probucol, TMZ or both; type: in vivo, mouse; conditions: FIGS. 20A-C
Procedure: WT mice were IC implanted with GL261-Luc2 cells. […] (FIG. 20A) Tumor growth curve as determined by IVIS, (FIG. 20B) mice weight loss, and (FIG. 20C) Kaplan-Meier curves assess overall survival. p-value by Two-way ANOVA. Data represent Mean±SEM, 8 mice/group.
For intracranial mouse glioma, mice were anesthetized, positioned in a Stereotaxic Alignment System, and injected with 1.5×10^4 GL261 or CT-2A cells in 2 μl of DMEM. Injections were made to the right frontal lobe, approximately 2.5 mm lateral and 0.1 mm caudal from bregma at a depth of 3 mm. In-vivo bioluminescence imaging, following XenoLight D-luciferin Potassium Salt administration (150 mg/kg) i.p. administration, was determined using IVIS Spectrum system (PerkinElmer). Ganciclovir (GCV, Cymevene, Roche #SAP-10051872; 25 mg/kg), Diphtheria-toxin (DT, Sigma-Aldrich, #D0564; 1100 ng/mice), or vehicle control (PBS) were administered daily following tumor establishment (day 10), as previously described (Mayo, L., et al. Nat Med (2014) 20: 1147-1156). CD8^+ T cell depletion was performed using an anti-CD8 monoclonal antibody (53.6-7, Bioxcell) or an isotype control monoclonal antibody (2A3, Bioxcell), as previously described (Takenaka, M. C. et al. Control of tumor-associated macrophages and T cells in glioblastoma via AHR and CD39. Nat Neurosci 22, 729-740 (2019)). GBM-bearing mice were intraperitoneally injected (0.1 mg/mouse) with an anti-CD8 or an isotype control mAbs, 1 day before, and 7 days after, GCV administration. CD8 T-cell depletion was validated by FACS analysis using a Sony SH800 FACS instrument (Sony Biotechnology). Data analysis was performed using FlowJo v10 (TreeStar, USA). The following reagents were used for analysis: anti-CD45 (1:100; 30-F11, Biolegend, #103106), anti-CD3□ (1:50; 145-2C11, Biolegend #100335), and anti-CD8a (1:100; 53-6.7, Biolegend, #100765).

primary astrocytes = test: Cell viability assay (Annexin V/DAPI FACS) of primary astrocytes; type: cell-based, mouse; design: dose or concentration left out as unconfirmed; conditions: lovastatin, 3 day treatment; FIGS. 11G-H
Source text: FIGS. 11A-K illustrate that astrocyte-derived cholesterol supports glioma survival. (FIG. 11A) Representative immunofluorescence images of cholesterol accumulation (Filipin III, white) in the GBM tumor (tdTomato^+ GL261 cells, red), Tumor margins are indicated in yellow (n=3 biologically independent samples). Scale bars, 400 μm (right), 150 μm (left). (FIGS. 11B-E) Real-time changes in the ECAR (FIGS. 11B-C) and OCR (FIGS. 11D-E) of CT-2A glioma cells, cultured in media supplemented with full serum (FCS) or lipoprotein-deprived serum (LPDS) for 18 hours and measured using Seahorse. […] Glycolysis, glycolytic capacity and glycolytic reserve are extracted from ECAR reading, and basal respiration, ATP production, Maximal respiration, and spare respiratory capacity were determined based on OCR. […] (FIGS. 11I-J) Representative immunoblot and quantification analyses comparing LDLR protein levels in with CT-2A and GL261 cells cluttered for 2 days in FCS or LPDS supplemented media. […] P values were determined by two-sided Student's t-tests (FIGS. 11B-E and 11I-K) or by one-way ANOVA, followed by Fisher's LSD post-hoc analysis (FIGS. 11G-H). *P<0.05, **P<0.01, ***P<0.001.
GL261, CT-2A, or astrocytes were seeded at a density of 1.5×10^5 cells per well in a 6-well plate. […] Microglial cell death was determined by LDH Assay (Sigma-Aldrich, #4744934001) according to the manufacturer's instructions. […]

[2] = test system: GL261 and CT-2A glioma cells; test: Cell viability assay (Annexin V/DAPI FACS) of glioma cells; type: cell-based, mouse; design: glioma viability: dose or concentration left out as unconfirmed; conditions: lovastatin, 3 day treatment; CT-2A and GL261; FIGS. 11G-H
Procedure: FIGS. 5A-N illustrate that astrocyte-derived cholesterol supports glioma survival. (FIGS. 5A-D) Real-time changes in the ECAR (FIGS. 5A-B) and oxygen consumption rate (OCR) (FIGS. 5C-D) of GL261 glioma cells, cultured in media supplemented with full serum (FCS, fetal calf serum) or lipoprotein-deprived serum (LPDS, Lipoprotein-deficient serum) for 18 hours and measured using Seahorse. Oligo, oligomycin; FCCP, carbonyl cyanide4-(trifluoromethoxy) phenylhydrazone; R/A, rotenone plus antimycin A; 2-DG, 2-deoxy-d-glucose. Glycolysis, glycolytic capacity and glycolytic reserve were extracted from the ECAR reading, and basal respiration, adenosine triphosphate (ATP) production, Maximal respiration, and spare respiratory capacity were determined based on OCR. Data are representative of two independent experiments (n=6 technical replicates per experiment). (FIG. 5E) Percentage of cell death of GL261 and CT-2A glioma cells, or primary astrocytes, cultured in FCS or LPDS for 5 days; as determined by Annexin-V assay (n=5 independent experiments). […] Representative flow cytometry plots of Annexin-V/DAPI staining from each group are shown in FIG. 5F and quantification analyses of cholesterol rescue are in FIG. 5G (n=5 biologically independent experiments). (FIGS. 5H-K) Representative images and quantification of LDLR expression (Immunoblot, FIGS. 5H-I) and cell death via FACS analysis of Annexin V/DAPI staining (FIGS. 5J-K) in response to endogenous LXR agonists (24-OHC) or Mock (DMSO) treatment in GL261 and CT-2A cells (n=3 biologically independent experiments). […] (FIGS. 5L-M) Representative flow cytometry plots of murine GL261 and CT-2A glioma cells co-cultured for 5 days with primary mouse astrocytes are shown in FIG. 5L and quantification analyses in FIG. 5M (n=4 biologically independent experiments). (FIG. 5N) quantification analyses of human U87EGFRvIII (U87) glioma cells co-cultured with human primary astrocytes for 5 days (n=3 biologically independent experiments). […]

[3] = summary statement on ABCA1 inhibitors, FIGS. 16A-E

Sequence of cholesterol transporter ABCA1 (O95477 whole entry): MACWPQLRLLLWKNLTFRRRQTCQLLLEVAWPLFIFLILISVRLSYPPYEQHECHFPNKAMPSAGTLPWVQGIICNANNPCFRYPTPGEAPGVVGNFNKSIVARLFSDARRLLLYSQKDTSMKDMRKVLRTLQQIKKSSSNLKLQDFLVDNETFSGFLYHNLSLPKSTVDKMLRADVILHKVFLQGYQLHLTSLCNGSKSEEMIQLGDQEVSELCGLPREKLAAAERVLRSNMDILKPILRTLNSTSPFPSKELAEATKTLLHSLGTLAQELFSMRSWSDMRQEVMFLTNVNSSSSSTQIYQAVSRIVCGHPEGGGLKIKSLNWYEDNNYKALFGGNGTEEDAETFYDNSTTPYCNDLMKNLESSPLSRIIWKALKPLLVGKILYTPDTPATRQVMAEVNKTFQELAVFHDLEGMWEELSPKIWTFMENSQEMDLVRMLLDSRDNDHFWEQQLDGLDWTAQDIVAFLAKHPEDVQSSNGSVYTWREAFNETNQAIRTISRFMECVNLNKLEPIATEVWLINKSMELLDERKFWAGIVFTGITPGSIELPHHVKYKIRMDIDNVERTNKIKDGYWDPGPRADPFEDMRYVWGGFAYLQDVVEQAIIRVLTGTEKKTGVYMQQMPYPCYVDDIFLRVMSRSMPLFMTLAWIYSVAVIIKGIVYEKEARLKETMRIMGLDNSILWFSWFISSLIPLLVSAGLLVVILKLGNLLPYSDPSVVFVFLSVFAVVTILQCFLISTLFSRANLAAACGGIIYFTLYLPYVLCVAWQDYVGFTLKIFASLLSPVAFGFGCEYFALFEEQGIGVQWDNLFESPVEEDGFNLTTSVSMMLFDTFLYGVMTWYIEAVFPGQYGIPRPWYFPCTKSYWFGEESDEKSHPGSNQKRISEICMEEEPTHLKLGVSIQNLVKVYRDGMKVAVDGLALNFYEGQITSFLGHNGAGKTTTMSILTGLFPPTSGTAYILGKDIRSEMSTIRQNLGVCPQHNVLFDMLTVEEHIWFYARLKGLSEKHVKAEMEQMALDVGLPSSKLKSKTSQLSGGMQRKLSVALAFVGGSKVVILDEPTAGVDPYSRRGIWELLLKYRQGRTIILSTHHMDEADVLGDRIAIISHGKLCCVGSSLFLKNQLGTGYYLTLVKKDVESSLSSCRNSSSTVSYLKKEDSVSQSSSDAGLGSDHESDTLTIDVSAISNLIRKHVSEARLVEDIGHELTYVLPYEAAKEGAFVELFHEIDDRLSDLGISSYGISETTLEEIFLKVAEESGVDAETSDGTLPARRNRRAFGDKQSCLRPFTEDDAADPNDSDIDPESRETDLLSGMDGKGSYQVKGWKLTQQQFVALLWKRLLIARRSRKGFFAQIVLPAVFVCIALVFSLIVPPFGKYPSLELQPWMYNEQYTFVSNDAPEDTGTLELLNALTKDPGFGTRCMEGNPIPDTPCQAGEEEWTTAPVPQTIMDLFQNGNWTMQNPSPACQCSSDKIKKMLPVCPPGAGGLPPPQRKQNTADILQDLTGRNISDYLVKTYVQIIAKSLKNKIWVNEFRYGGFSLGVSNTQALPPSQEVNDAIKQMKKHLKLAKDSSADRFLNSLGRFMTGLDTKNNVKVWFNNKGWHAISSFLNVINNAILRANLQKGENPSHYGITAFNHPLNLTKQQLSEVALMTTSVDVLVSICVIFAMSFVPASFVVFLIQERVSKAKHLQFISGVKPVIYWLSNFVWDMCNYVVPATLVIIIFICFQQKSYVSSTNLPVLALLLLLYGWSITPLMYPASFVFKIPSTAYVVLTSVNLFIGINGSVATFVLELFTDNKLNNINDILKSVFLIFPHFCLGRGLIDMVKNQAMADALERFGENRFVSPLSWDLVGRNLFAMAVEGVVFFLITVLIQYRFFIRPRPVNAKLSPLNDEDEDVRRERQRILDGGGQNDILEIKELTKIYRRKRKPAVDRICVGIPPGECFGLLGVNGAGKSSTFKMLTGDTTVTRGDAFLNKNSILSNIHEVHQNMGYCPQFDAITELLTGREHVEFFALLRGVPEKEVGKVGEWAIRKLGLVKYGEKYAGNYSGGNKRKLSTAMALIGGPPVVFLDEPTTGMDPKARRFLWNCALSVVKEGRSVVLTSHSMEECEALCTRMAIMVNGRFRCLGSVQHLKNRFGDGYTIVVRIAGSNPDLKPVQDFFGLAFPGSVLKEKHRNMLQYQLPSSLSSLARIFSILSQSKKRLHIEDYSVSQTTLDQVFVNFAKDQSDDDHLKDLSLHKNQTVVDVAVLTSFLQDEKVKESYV

SMILES	ABCA1 inhibitor potency [1]	tumor growth (IVIS) (GL261 glioma (GBM); GL261-bearing WT mice)	tumor growth (IVIS) (GL261 glioma (GBM); GL261-bearing WT mice, listed as probucol)	weight loss associated with tumor burden (GL261 glioma (GBM); GL261-bearing WT mice, Probucol 30 mg/kg daily from day 10 vs vehicle, FIG. 16C)	survival (Kaplan-Meier) (GL261 glioma (GBM); GL261-bearing WT mice, Probucol 30 mg/kg daily from day 10 vs vehicle, FIG. 16D)	survival of subjects having GBM in-vivo (GL261 glioma (GBM); [3])	tumor size of subjects having GBM in-vivo (GL261 glioma (GBM); [3])	weight loss of subjects having GBM in-vivo (GL261 glioma (GBM); [3])	therapeutic effect (potency) of TMZ (GL261-Luc2 glioma (GBM); probucol 30 mg/kg combined with TMZ 2.5 mg/kg, GL261-Luc2 bearing mice)	GBM pathogenicity (GL261-Luc2 glioma (GBM); probucol 30 mg/kg, limited course (two days before, during and two days after TMZ course), from day 10)	cell death of primary astrocytes (primary astrocytes)	glioma viability [2]
CC(C)(Sc1cc(C(C)(C)C)c(O)c(C(C)(C)C)c1)Sc1cc(C(C)(C)C)c(O)c(C(C)(C)C)c1 [Probucol]	strong	attenuates GBM progression	significantly attenuated	significantly attenuated	improved	prolonging survival	decreasing tumor size	preventing weight loss	enhances the potency of TMZ therapeutic; also recorded: dramatically enhanced the therapeutic effect of TMZ	able to halt GBM pathogenicity		
CC[C@H](C)C(=O)O[C@H]1C[C@@H](C)C=C2C=C[C@H](C)[C@H](CC[C@@H]3C[C@@H](O)CC(=O)O3)[C@H]21 [lovastatin, Lovastatin]											significant cell death of primary astrocytes	did not affect glioma viability
